Assay results as given in PMC7908975, “Antioxidant and Anti-Inflammatory Activity of Citrus Flavanones Mix and Its Stability after In Vitro Simulated Digestion” (Antioxidants, 2021).

Legend:
[1] = In vitro simulated human gastric and duodenal digestion with LC-DAD-ESI-MS/MS quantification; assay type: in vitro ADME; details: with respect to starting FM 10 µM; for DFM (µM): flavanone in duodenal digested flavanones mix: after gastric 2 h plus duodenal 4 h digestion, 37 °C; for GFM (µM): flavanone in gastric digested flavanones mix: after gastric digestion 2 h, pH 2.5, 37 °C
From the text: Based on the results of the preliminary antioxidant and anti-inflammatory screening (see Section 2.2), the most powerful flavanones (neohesperidin, hesperidin, neoeriocitrin, eriocitrin, and hesperetin) were selected in order to prepare a flavanones mix (FM), which was, at first instance, investigated by the same in vitro colorimetric assays (see Section 2.2) in order to evaluate its potency with respect to the single flavanones and to elucidate potential synergistic mechanisms. The following final concentration range of FM were used: FRAP (2.50–20 µM), ORAC (0.08–0.60 µM), TEAC (0.31–2.50 µM), DPPH (1.25–10 µM), ADA (5.0–40 µM), and APA (2.50–20 µM). After that, being the results of the preliminary antioxidant and anti-inflammatory screening of FM very promising, an appropriate concentration was chosen to proceed with the subsequent analyses. In particular, the FM was prepared on the assumption that digested sample, which would then be applied to the Caco-2 cells for the anti-inflammatory experiments, had to contain an equimolar concentration of the five most powerful flavanones (neohesperidin, hesperidin, neoeriocitrin, eriocitrin, and hesperetin) equal to 10 µM, which represents the mean efficacy concentration taking into account the IC50 values obtained in the preliminary antioxidant and anti-inflammatory screening of the FM. At this purpose, stock solutions (14 mM) of flavanones in DMSO were mixed and diluted 10-fold with Milli-Q water to obtain the 1.4 mM FM, which was used to carried out the in vitro simulated human digestion. In vitro gastric and duodenal digestion of FM was carried out according to Trombetta et al. with some modifications. FM solution (1.5 mL) (see Section 2.3), has been dissolved in 7.5 mL of simulated gastric solution containing 0.127 mM egg-phosphatidylcholine and adjusting the pH to 2.5, by 1 M HCl. Gastric pepsin and lipase (9000 U/mL and 60 U/mL, respectively) were added to the mixture starting the gastric digestion phase, which was protracted for 2 h at 37 °C, incubating under continuous stirring (170 rpm) by an Innova 4000 Benchtop Incubator Shaker (New Brunswick Scientific, Edison, NJ, USA). The gastric phase was stopped by the addition of 1M NaOH in order to reach a pH of 7.5, and 6 mL of the previous solution passed to the duodenal digestion phase. Duodenal solution was prepared by adding 2.10 mL of simulated bile solution (6.5 mM phosphatidylcholine, 4 mM cholesterol, 12.5 mM sodium taurocholate, and 12.5 mM sodium glycodeoxycholate) to 5.9 mL of simulated pancreatic juice containing pancreatic lipase (590 U/mL), colipase (3.2 µg/mL), trypsin (11 U/mL), α-chymotrypsin (24 U/mL), and α-amylase (300 U/mL). The duodenal mixture was incubated for 4 h under continuous stirring at 37 °C as described above. At the end, both gastric and duodenal digesta were immediately stored at −80 °C until the subsequent analyses. For quali-quantitative determination of flavanones, gastric and duodenal digesta were extracted with methanol (1:2, v/v) by mixing for 3 min. After that, samples were centrifuged at 12,000× g for 10 min, filtered by a 0.22 µm nylon syringe filter and injected into a liquid chromatograph equipped with a diode-array detector and mass spectrophotometer (LC-DAD-MS system, Agilent technologies, Santa Clara, CA, USA). The chromatographic separation was obtained using a reverse phase column Luna Omega PS C18 (150 × 2.1 mm, 5 µm; Phenomenex, Torrance, CA, USA) by using solvent A (formic acid 0.1% v/v) and solvent B (acetonitrile) as mobile phase according to the following elution gradient: 0 min, 0% B; 3–9 min, 3% B; 9–24 min, 12% B; 24–30 min, 20% B; 30–33 min, 33–43 30% B; 43–66 min 50% di B; 66–81 min 60% di B; 81–86 min 0% di B; 86–90 min 0% di B. […] UV–Vis spectra of flavanones were recorded (190–400 nm) and chromatograms were acquired at 292 nm, maximum flavanones absorption wavelength. […]

[2] = system: IL-6 release in Caco-2 cells; assay: IL-6 release, IL-1β stimulated Caco-2 transwell model; assay type: cell-based, human; details: 24 h
Experimental: (§1) Experiments were carried out on transwell models (CacoReady™, Readycell, Barcelona, Spain) consisting of Caco-2 cells (8.5 × 10^4 cells/cm^2, passage number 41–58) seeded on polyester microporous filters in 24-well HTS plates (6.5 mm diameter, 0.33 cm^2 area and 0.4 µm of pore size) (Corning Incorporated, Corning, NY, USA). Completed Dulbecco’s Modified Eagle Medium (DMEM), prepared according to Denaro et al., was added on the apical (0.3 mL) and basolateral side (0.9 mL) of the Transwell® insert. After 21 days of culture, Caco-2 cells were completely differentiated and polarized, such that their phenotype resembled the morphological and functional features of mature enterocytes lining the small intestine.
(§2) Before starting with the anti-inflammatory experiments, the monolayer integrity was checked by measuring the trans-epithelial electrical resistance (TEER) with a Millicell® ERS-2 V/ohmmeter (Merck Millipore, Darmstadt, Germany) equipped with STX 100C electrode (World Precision Instruments, Sarasota, FL, USA). Caco-2-plated filters with epithelial resistance ≥800 Ω/cm^2 were used.
(§3) The anti-inflammatory activity of FM and digested FM (DFM) was evaluated on Caco-2 transwell model, according to Tesoriere et al., with some modifications. Briefly, 1.4 mM FM (see Section 2.3) was diluted 140 times in completed DMEM, obtaining a 10 µM FM (DMSO < 0.1%). […]
(§4) IL-6 and IL-8 release were measured by high-sensitivity human ELISA kits (Cymax IL-6 YIF-LF-EK0260 and Cymax IL-8YIF-LF-EK0262, Ab Frontiers, Adipogen Corporation, 9853 Pacific Heights Blvd., Suite L San Diego, CA, USA) according to the manufacturer’s recommendations, whereas NO release was estimated according to Tesoriere et al. by Griess reaction. […] Absorbance was recorded at 550 nm using a microplate reader (Multiskan GO, Thermo Scientific, Waltham, MA, USA). Results were expressed as µM NO extrapolating the results by a reference standard curve of sodium nitrite (1.0–15 µM).

[3] = system: IL-8 release in Caco-2 cells; assay: IL-8 release, IL-1β stimulated Caco-2 transwell model; assay type: cell-based, human; details: 24 h
Experimental: as §1, §2, §3, §4

[4] = system: NO release in Caco-2 cells; assay: NO release (Griess reaction), IL-1β stimulated Caco-2 transwell model; assay type: cell-based, human; details: 24 h
Experimental: as §1, §2, §3, §4

[5] = set-up: method as in PMID 19728713; details: as compounds of a bitter orange extract; cited from earlier work
[6] = Trolox Equivalent Antioxidant Capacity (TEAC) assay
Experimental: TEAC assay was carried out according to Bazzicalupo et al.. […] Fifty microliters of each flavanone (2.0–64 µM) or trolox as reference compound (2.50–20 µM) were added to 1 mL of the TEAC reagent and incubated at RT in the dark for 6 min. The absorbance was recorded at 734 nm. Based on the results of the preliminary antioxidant and anti-inflammatory screening (see Section 2.2), the most powerful flavanones (neohesperidin, hesperidin, neoeriocitrin, eriocitrin, and hesperetin) were selected in order to prepare a flavanones mix (FM), which was, at first instance, investigated by the same in vitro colorimetric assays (see Section 2.2) in order to evaluate its potency with respect to the single flavanones and to elucidate potential synergistic mechanisms. The following final concentration range of FM were used: FRAP (2.50–20 µM), ORAC (0.08–0.60 µM), TEAC (0.31–2.50 µM), DPPH (1.25–10 µM), ADA (5.0–40 µM), and APA (2.50–20 µM). After that, being the results of the preliminary antioxidant and anti-inflammatory screening of FM very promising, an appropriate concentration was chosen to proceed with the subsequent analyses. […]

[7] = 10 µM co-treatment with IL-1β 25 ng/mL

## C[C@@H]1O[C@@H](OC[C@H]2O[C@@H](Oc3cc(O)c4c(c3)O[C@H](c3ccc(O)c(O)c3)CC4=O)[C@H](O)[C@@H](O)[C@@H]2O)[C@H](O)[C@H](O)[C@H]1O [Eriocitrin, eriodictyol-7-O-rutinoside]
[1]
  DFM (µM): flavanone in duodenal digested flavanones mix: 8.80 ± 0.03 µM
  GFM (µM): flavanone in gastric digested flavanones mix: 9.05 ± 0.12 µM

## IL-1β: well-known pro-inflammatory agent used at 25 ng/mL to trigger inflammation (CTR+)
[2]; 25 ng/mL
  increase in IL-6 vs CTR−: ~ 7 folds
[3]; 25 ng/mL
  increase in IL-8 vs CTR−: ~ 27 folds
[4]; 25 ng/mL
  increase in NO release vs CTR−: ~ 2.5 folds

## C[C@@H]1C[C@H]2[C@@H]3CCC4=CC(=O)C=C[C@]4(C)[C@@]3(F)[C@@H](O)C[C@]2(C)[C@@]1(O)C(=O)CO [Dex, dexamethasone]
[2]; 10 µM alone, without IL-1β
  pro-inflammatory activity, IL-6 release vs CTR−: did not show any pro-inflammatory activity
[2]; [7]
  IL-6 release with respect to positive control (CTR+): statistically significant decrease (p < 0.001)
[3]; 10 µM alone, without IL-1β
  pro-inflammatory activity, IL-8 release vs CTR−: did not show any pro-inflammatory activity
[3]; [7]
  inhibition of IL-8 release: ~66%
[4]; 10 µM alone, without IL-1β
  pro-inflammatory activity, NO release vs CTR−: did not show any pro-inflammatory activity
[4]; [7]
  inhibition of NO release: ~16%

## COc1ccc([C@@H]2CC(=O)c3c(O)cc(O[C@@H]4O[C@H](CO[C@@H]5O[C@@H](C)[C@H](O)[C@@H](O)[C@H]5O)[C@@H](O)[C@H](O)[C@H]4O)cc3O2)cc1O [Hesperidin, hesperetin-7-O-rutinoside]
[5]
  stability after simulated in vitro digestion: stable after simulated in vitro digestion
[6]
  IC50 in comparison with reference standard trolox, TEAC: a behavior comparable with the reference standard
[1]
  DFM (µM): flavanone in duodenal digested flavanones mix: 9.86 ± 0.13 µM
  GFM (µM): flavanone in gastric digested flavanones mix: 9.95 ± 0.04 µM
